Results as given in the METLIN SMRT retention time set (Domingo-Almenara et al. 2019).

Assay: gradient 5% acetonitrile 3 min, to 50% in 2 min, to 85% in 15 min, held 3 min, 100 µL/min
Details: column: Zorbax Extend-C18 2.1 x 50 mm; eluents: water / acetonitrile, 0.1% formic acid
Procedure, shortened: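 Data were gathered over 3 months by HPLC coupled to a quadrupole time-of-flight mass spectrometer, operated in positive and negative ionization mode. Mixtures of ~100 pure standards ran on a Zorbax Extend-C18 column (2.1 × 50 mm, 1.8 μm) at 100 μL/min, with water and acetonitrile each containing 0.1% formic acid and dead and dwell volumes of 40 μL and 900 μL. Retention time was read from adduct peaks picked by computer and checked manually.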

| Compound | RP-LC retention time [s] |
| --- | --- |
| Cc1cc(C(=O)NCCc2c[nH]c3ccccc23)c2c(C)nn(-c3cccc(Cl)c3C)c2n1 | 1050 |
| CCOC(=O)CCCn1nc(C)c2nn(-c3ccccc3)c(-n3cccc3)c2c1=O | 1060 |
| CCc1nc2cccnc2n1C1CCN(C(=O)c2ccc(C(F)(F)F)cc2)C1 (stereo not given) | 649 |
| Cc1ccccc1-c1noc(C2CCCN2C(=O)Nc2cccc(F)c2)n1 (stereo not given) | 1030 |
| Cc1cc(SCC(N)=O)nc2ccccc12 | 664 |
| Cc1cc(C)cc(-n2ccn(Cc3nc(-c4ccc(Cl)cc4)no3)c(=O)c2=O)c1 | 960 |
| Cc1cc(NC(=O)C(=O)NCC(O)c2cccc3ccccc23)no1 (stereo not given) | 734 |
| CCCN1CCN(C(=O)c2sc3ncn(CC(=O)N4CCCCC4C)c(=O)c3c2C)CC1 (stereo not given) | 596 |
| CSc1ccc(-c2nc3cnccn3c2Nc2cccc(C(F)(F)F)c2)cc1 | 1020 |
| Cc1csc(-c2cc(S(=O)(=O)NCc3ccc(N(C)C)cc3)c(C)s2)n1 | 763 |
| Cc1ccc(C(=O)Nc2c(-c3ccccc3)nc3ccccn23)cc1[N+](=O)[O-] | 693 |
| O=c1ccn(-c2ccccc2)nc1-c1nc(-c2ccccn2)no1 | 685 |
| COc1ccc(NC(=O)CSc2nccc3c2ccn3Cc2ccc(F)cc2)cc1OC | 788 |
| COc1ccccc1-c1nc(-c2ccccn2)no1 | 813 |
| CN(CCNC(=O)CN(c1ccccc1)S(=O)(=O)N(C)C)Cc1ccccc1 | 656 |
| Cc1ccc(-c2nc(C)cc(SCC(=O)Nc3ccccc3Br)n2)cc1 | 1290 |
| COc1cccc(N2CCN(C(=O)C3CCN(c4ncnc5c4oc4ccccc45)CC3)CC2)c1 | 794 |
| CCN1CCN(c2cc(C)c3cc(NC(=S)NCc4ccc(C)cc4)ccc3n2)CC1 | 617 |
| O=C1CCCN1Cc1noc(-c2cccc(Cl)c2)n1 | 814 |
| Cc1cccc(C)c1NC(=O)CSc1ccc(N2CCCC(C(=O)NC3CC3)C2)nn1 (stereo not given) | 628 |

| Compound | RP-LC retention time [s] |
| --- | --- |
| CCCCCn1c(=O)c2ccccc2n(Cc2nc(-c3ccc(OC)c(OC)c3)no2)c1=O | 1120 |
| O=C(NC1CCCCC1)C1CCN(c2nc3ccc(-c4cncnc4)nc3s2)CC1 | 830 |
| COc1cc(-c2noc(Cn3ccnc3)n2)cc(OC)c1OC | 604 |
| Cc1ccc(Cn2c(C(=O)NCc3ccccc3)cc3sccc32)cc1 | 864 |
| Cc1ccccc1-c1nc(N)n(C(=O)C2CC2)n1 | 876 |
| CC(C)n1c(=O)oc2cc(-c3noc(COc4ccc(Cl)cc4)n3)ccc21 | 1170 |
| COc1ccc(Nc2c(-c3ccc(Cl)cc3)nc3ncccn23)cc1OC | 748 |
| O=S(=O)(Nc1cc(F)ccc1F)c1c[nH]c2ncccc12 | 715 |
| COc1ccccc1-c1nnc(-c2ccc(OC)c(S(=O)(=O)N(C)C)c2)o1 | 798 |
| O=C(Nc1nc(-c2cccnc2)cs1)c1csc(-n2cccc2)n1 | 667 |
| Cc1ccc(Cn2nnc(-c3noc(C)n3)c2C)cc1 | 860 |
| c1cc2c(cc1-c1noc(C3CCC3)n1)nnn2CCN1CCCCC1 | 654 |
| O=C(NCCC1=CCCCC1)c1cccn1-c1cccnc1 | 810 |
| Cc1c(C(=O)Nc2nccs2)nnn1-c1ccc2noc(-c3ccc(Cl)cc3)c2c1 | 1020 |
| CN1CCC(N2CCN(C(=O)CCc3cn(C)nc3-c3ccc(F)cc3)CC2)CC1 | 559 |
| Cc1ccc(C(=O)NC2CCN(c3cc(-c4ccccc4)[nH]n3)C2)s1 (stereo not given) | 708 |
| Cc1cc(N2CCN(C(=O)c3cccc(F)c3)CC2)nc(N2CCCCC2)n1 | 670 |
| Cc1ncc2c(n1)C[C@@H]1CC[C@H]2N1S(=O)(=O)c1ccc(F)c(C)c1 | 732 |
| O=C(CCSc1ccc(F)cc1)Nc1nnc(-c2ccco2)o1 | 729 |
| Cn1ccc2ccn(CC(=O)NCc3ccc(Cl)cc3)c(=O)c21 | 768 |

| Compound | RP-LC retention time [s] |
| --- | --- |
| Cc1cccc(-c2nc(C3CC(=O)N(c4ccc(F)c(Cl)c4)C3)no2)c1 (stereo not given) | 1140 |
| Cc1cc(C(=O)NCc2cc(F)cc(F)c2)nc2cc(-c3cccs3)nn12 | 1120 |
| Cc1cc(C)n2nc(SCC(=O)Nc3cccc(C(F)(F)F)c3)nc2n1 | 827 |
| CN1C(=O)Cc2cc(NC(=O)c3ccc(C(F)(F)F)cc3)ccc21 | 748 |
| O=C(NCc1cccc(F)c1)c1cn2cc(Cl)ccc2n1 | 799 |
| O=C(Nc1ccc2sccc2c1)c1ccc([N+](=O)[O-])s1 | 924 |
| COc1cc2c(cc1CNC(=O)COc1ccc(F)cc1)OCCCO2 | 874 |
| NS(=O)(=O)c1ccc(NC(=O)CC2Sc3ccc(C(F)(F)F)cc3NC2=O)cc1 (stereo not given) | 722 |
| CCCCc1c(C)n(CC(=O)NCC2CCCO2)c2nc(-c3ccccc3)nn2c1=O (stereo not given) | 831 |
| CCCCC(=O)Nc1ccc(N(C)CCc2c(C)nn(C)c2C)c(C(=O)O)c1 | 576 |
| COc1ccc(N2CCN(c3ncccc3-c3nc(-c4ccc(Cl)cc4)no3)CC2)cc1 | 1230 |
| CCCn1cc(S(=O)(=O)Nc2ccc(F)c(C)c2)c2cccnc21 | 923 |
| CCOc1ccc(-c2noc(Cc3nnc(-c4cc(F)cc(F)c4)o3)n2)cc1 | 1100 |
| CN(C)CCCNc1oc(-c2ccccc2)nc1S(=O)(=O)c1ccc(F)cc1 | 692 |
| Cc1cc(=O)n(CC(=O)Nc2ccc3c(c2)OCO3)c(-c2ccc(Cl)cc2)n1 | 1040 |
| CCn1cnnc1C1CCCCN1C(=O)Cc1c[nH]c2ccccc12 (stereo not given) | 649 |
| O=C(NCCc1c[nH]c2ccc(Cl)cc12)C1CCCN(c2nc3cccnc3s2)C1 (stereo not given) | 858 |
| CCC(Sc1nc(=O)cc(N)n1CCc1ccccc1)C(=O)Nc1nc(-c2ccccc2)cs1 (stereo not given) | 878 |

Results, then the molecule that gave them:

| RP-LC retention time [s] | Compound |
| --- | --- |
| 887 | CCC(=O)N1CCc2ccccc2C1C(=O)NCc1ccc(Br)cc1 (stereo not given) |
| 1190 | Cc1ccc(-c2nc(-c3ccc(S(=O)(=O)N4CCOCC4)cc3)no2)cc1F |
| 523 | CN(C)c1ccc(CCNC(=O)C(=O)NC2CC2)cc1 |
| 1160 | CCOc1ccccc1C(=O)n1nc(C)c(S(=O)(=O)N2CCCCC2)c1C |
| 976 | COC(=O)c1cccc(C(=O)Nc2cccc(Cl)c2C)n1 |
| 916 | COC(=O)c1cccc(C(=O)N2CCN(c3cccc(C)c3C)CC2)n1 |
| 709 | COc1ccc2[nH]cc(CCN3CC(C(=O)NC4CCCC4)CC3=O)c2c1 (stereo not given) |
| 624 | CCCN1CCn2cc(C(=O)NCc3cccc(Br)c3)nc2C1 |
| 640 | CCCCN(C)C(=O)C1CCN(c2cn[nH]c(=O)c2)CC1 |
| 616 | CCc1nc2cccnc2n1CCN1CCN(C(=O)Nc2ccc(C)cc2Cl)CC1 |
| 716 | CCCNc1cc(N2CCC(CCC(=O)NCc3cccc(C)c3)CC2)ncn1 |
| 633 | COc1ccc2nc3oc(C(=O)NCCN4CCCCC4C)cc3cc2c1 (stereo not given) |
| 865 | O=S(=O)(c1ccccc1F)N1CCC(OCc2noc(C3CCCO3)n2)CC1 (stereo not given) |
| 791 | Cc1ccc(F)cc1NS(=O)(=O)c1cc(-c2[nH]ncc2C(=O)N2CCCCC2)oc1C |
| 819 | COc1cc(CSc2nc(CC(=O)Nc3nccs3)cs2)cc(OC)c1 |
| 869 | CC(C)NC(=O)c1c2c(cn(-c3ccc(F)cc3)c1=O)C(=O)CC(C)(C)C2 |

| RP-LC retention time [s] | Compound |
| --- | --- |
| 610 | O=C(Cn1cnc2nc(N3CCC(C(=O)NC4CC4)CC3)sc2c1=O)NCc1ccco1 |
| 639 | CCN(CC)S(=O)(=O)c1ccc2c(c1)cc(C(=O)NCCN(C)C)n2C |
| 769 | CN(C)C(=O)c1ccc2c(c1)N(CC(=O)NC1CCCCCCC1)C(=O)CS2 |
| 760 | CCOC(=O)CNC(=O)N1CCCC1c1ccc(F)cc1 (stereo not given) |
| 711 | Cc1cc(NS(=O)(=O)c2cc3n(c2)CCCNC3=O)ccc1Cl |
| 588 | CN(C)CC(=O)N1CCc2[nH]nc(-c3ccc(F)cc3)c2C1 |
| 725 | COc1ccc(Br)cc1CNC(=O)CCC(=O)N1CCSc2nc(C)cc(C)c21 |
| 602 | O=C1CCCN1CCCN(CC(=O)N1CCNCC1)C(=O)c1ccc(C(F)(F)F)cc1 |
| 923 | Cc1ccc(CNC(=O)c2nnc(-c3ccc(S(=O)(=O)N4CCC(C)CC4)cc3)o2)o1 |
| 652 | CC(C)C(=O)Nc1ccc(C2(C(=O)N3CCN(C(C)C)CC3)CCCCC2)cc1 |
| 1020 | CCOC(=O)c1c(S(=O)(=O)N2CCC(C(=O)Nc3ccc(C(C)C)cc3)CC2)c(C)n(C)c1C |
| 957 | Cc1ccc(S(=O)(=O)N(C)CC2(C)CCOCC2)cc1F |
| 650 | CCNc1cc(N2CCC(CCC(=O)NCc3ccccc3OC)CC2)ncn1 |
| 675 | O=C(CN1CCN(C(=O)N2CCCCC2)CC1)Nc1cc(Cl)ccc1Cl |
| 800 | Cn1nc(C(=O)N2CCCC(C(=O)Nc3ccccc3)C2)c2c1CCN(C(=O)CC1CCCC1)C2 (stereo not given) |
| 691 | COCCC1(NC(=O)c2ccsc2)CCN(S(C)(=O)=O)CC1 |
